The conditions of series [1]: cited from earlier work.
Series [2] in a line: Particle size and ageing stability of perfluorooctyl bromide/lecithin emulsions (photosedimentation). In kind it is physicochemical. Conditions: 90% w/v emulsion of perfluorooctyl bromide. As for the experimental part:
32 g of egg-yolk lecithin and a mixture of salts whose composition is shown in detail in Table I was dispersed with Ultra Turrax under nitrogen (24000 t/min, 10 min) in 393 mL of injectable water. Perfluorooctyl bromide (PFOB, Perflubron®) (375 mL) was added slowly to this dispersion under nitrogen. The mixture was dispersed for 10 mn at 30-40° C. The coarse emulsion obtained was passed under nitrogen through a microfluidizer (M110F). After 10 passes under a pressure of 12000 psi in the chambers cooled to 35° C., the emulsion was recovered, filled in flasks then sterilized at 121° C. for 15 mn. The ageing was monitored at 5,25 and 40° C. (Table II and FIG. 1) and the average size of the particles measured by photosedimentation.
32 g of egg-yolk lecithin and a mixture of salts of the above composition (Table I) was dispersed under nitrogen using an Ultra Turrax T50 (24000 t/min, 10 min) in 379 mL of injectable water at 30-40° C. F6H8E (14.3 mL) was slowly added to this dispersion, which was stirred for 2 min. Perfluorooctyl bromide (375 mL) was then slowly added. The whole was emulsified for 10 min at 24000 t/min at 30-40° C. The coarse emulsion obtained was run under nitrogen through the microfluidizer and after 10 passes (12000 psi, 35° C.) the emulsion was filled in vials, sterilized and stored at 5,25 and 40° C. (Table II and FIG. 1). […]
The same protocol described in the example of Reference A was used but for 16 g of egg-yolk lecithin. The aging was monitored at 40° C. (Table II and FIG. 4).
The protocol described in example 1 was used with 385 mL of water, 8.38 mL of F8H8E, 16 g of lecithin and 375 mL of perfluorooctyl bromide. After microfluidization, the emulsion was sterilized and stored at 40° C. (Table II and FIG. 4). EXAMPLE 5 […]
The same protocol described in example of reference A was used but for 8 g of egg-yolk lecithin. The aging was monitored at 40° C. (Table II and FIG. 6 ) and the average size of the particles was measured by photosedimentation.
The protocol described in example 1 was used with 382 mL of water, 4,19 mL of F8H8E, 8 g of lecithin and 375 mL of perfluorooctyl bromide. After microfluidization the emulsion was sterilized and stored at 40° C. (Table II and FIG. 6).

A short description of series [3]: Facilitation of emulsification of perfluorooctyl bromide: fine particles versus number of microfluidizer passes. In kind it is physicochemical. The settings on record: perfluorooctyl bromide/lecithin emulsion, fine particles d<0,12 μm (FIG. 9). As to the method:
The compounds used in the methods of the invention facilitate the formation of the emulsion and lead to emulsions with fine particle size after a reduced number of passes or a reduced amount of energy. When the compound F8H8E of the invention is added to perfluorooctyl bromide/lecithin emulsion, 30% of fine particles are obtained after 10 passes. By comparison, the reference emulsion without the compounds of the invention requires 20 passes to obtain the same percentage of fine particles (FIG. 9).
The protocol described in Example 1 was used. The average particle size was measured during microfluidization after 1, 2, 3, 4, 5, 7 and 10 passes. The percentage of fine particles (d<0,12 μm) and of coarse particle (d>0,6 μm) was evaluated.
The same protocol as for reference emulsion E was used but for the addition of (F8H8E) as described in example 2.

Take `FC(F)(F)C(F)(F)C(F)(F)N(C(F)(F)C(F)(F)C(F)(F)F)C(F)(F)C(F)(F)C(F)(F)F` [perfluorotripropylamine]: the “half retention time in liver (comparison value)” value in series [1] is recorded as 65 days.
As for `CCCCCCCCC=CC(F)(F)C(F)(F)C(F)(F)C(F)(F)C(F)(F)C(F)(F)C(F)(F)C(F)(F)F` [Example F8H8E, C8F17CH═CHC8H17], the particle size result was “about 2.75 μm” in series [2] (0.1% w/v EYP and an equimolar amount of F8H8E); “about 1.5 μm” in series [2] (0.2% w/v of EYP and an equimolar amount of F8H8E); “about 0.38 μm” in series [2] (1% w/v of EYP and 0.7% w/v of F8H8E (FIG. 6)); “about 0.23 μm” in series [2] (2% w/v of EYP and 1.4% w/v of F8H8E (FIG. 4)). Also, the “number of passes to obtain 30% of fine particles” value in series [3] is given as 10 passes.
